Test results as given in patent US10285994B2, “Method of preventing or treating osteoporosis by neddylation inhibitor” (Chang Gung University, priority 2017, dated 2019).

What was measured:
[1] = system: UBA3; experiment: Western blot of UBA3 expression in RAW264.7 cells; type: cell-based, mouse; conditions: siRNA-transfected RAW264.7, FIG. 5B
Experimental: (§1) FIGS. 5A-5D are the data respectively depicting the effect of sRANKL on the neddylation pathway and the knockdown effect of UBA3 siRNA on macrophages during osteoclast differentiation according to example 4 of the present disclosure. FIG. 5A: RAW264.7 mouse macrophages were seeded on wells and were treated with various concentrations of sRANKL (0-100 ng/ml). After 72 hours' incubation, the cells were lysed and subjected to Western blotting analysis using specific antibodies in neddylation pathway. FIG. 5B: RAW264.7 mouse macrophages were seeded on wells and transfected with UBA3 or scrambled siRNA. After culture, the transfected cells were harvested, lysed, and further analyzed by Western Blot for checking NEDD8, UBA3, and APPBP1 expressions. FIGS. 5C and 5D: the UBA3 or scrambled siRNA transfected RAW264.7 cells were further treated with sRANKL (50 ng/ml), after 3-day induction, the morphological change of macrophages to TRAP-stained positive giant osteoclasts were photographed and further counted. Data are expressed as mean±SD where *p<0.05.
The RAW264.7 cells were starved with serum-free medium for six hours and then treated with the specified treatments. At indicated time points, the cells were washed with cold phosphate-buffered saline (PBS) and lysed in RIPA buffer containing complete protease inhibitor cocktail (Roche). […]

[2] = system: RAW264.7 cells; experiment: UBA3 knockdown on osteoclast differentiation, count of TRAP-positive giant osteoclasts; type: cell-based, mouse; conditions: siRNA-transfected RAW264.7, sRANKL 50 ng/ml, 3 days, FIG. 5C-5D
Experimental: as §1, with “*p<0.05. […]” for “*p<0.05.”
Six hours' post-transfection, the cells were treated with sRANKL (50 ng/ml). Three days later, the effect of UBA3 knockdown on mature giant osteoclast formation on wells was photographed and counted. […]

Substance	knockdown of UBA3 expression [1]	differentiating number of giant osteoclasts [2]
UBA3 siRNA 3: siRNA targeting UBA3, sense SEQ ID NO: 5, anti-sense SEQ ID NO: 6 (sense CCAAGCUCCAUUGUACCUUTT; antisense TTGGUUCGAGGUAACAUGGAA; chemistry not given here; one strand is listed 3' to 5')	can knockdown the expression of UBA3	significantly diminished the differentiating number of giant osteoclasts
UBA3 siRNA 2: siRNA targeting UBA3, sense SEQ ID NO: 3, anti-sense SEQ ID NO: 4 (sense GGAUCAAUGGAAUGCUGAUTT; antisense TTCCUAGUUACCUUACGACUA; chemistry not given here; one strand is listed 3' to 5')	can knockdown the expression of UBA3	significantly diminished the differentiating number of giant osteoclasts
